Source: PMC4270692, “Using a Non-Image-Based Medium-Throughput Assay for Screening Compounds Targeting N-myristoylation in Intracellular Leishmania Amastigotes” (PLoS Neglected Tropical Diseases, 2014)
“Also recorded” adds a separate entry of the source. Where two headings read alike, the source gives them in different places.

Columns and labels:
[1] = tested on: extracellular L. donovani amastigotes; assay: Extracellular assay on amastigotes freshly isolated from mouse spleens, 72 h at 26°C, Alamar blue; format: cell-based, Leishmania donovani; conditions: for EC50: Leishmania donovani; for Cellular (leishmanicidal) activity in words: extracellular assay
[2] = tested on: bone marrow derived macrophages
[3] = tested on: intracellular L. donovani amastigotes; assay: Intracellular amastigote assay: infected macrophages treated 72 h, saponin lysis, transformation to promastigotes, Alamar blue; format: cell-based, Leishmania donovani; conditions: for Effect on intracellular amastigotes at the highest concentration tested: 45 µM, after an "activity valley" at 15 µM; for EC50: Leishmania donovani, Macrophage
L. donovani NMT = L. donovani NMT (Leishmania donovani, UniProt D0AB09); assay: biochemical; format: biochemical
Sequence of L. donovani NMT (D0AB09 1-421): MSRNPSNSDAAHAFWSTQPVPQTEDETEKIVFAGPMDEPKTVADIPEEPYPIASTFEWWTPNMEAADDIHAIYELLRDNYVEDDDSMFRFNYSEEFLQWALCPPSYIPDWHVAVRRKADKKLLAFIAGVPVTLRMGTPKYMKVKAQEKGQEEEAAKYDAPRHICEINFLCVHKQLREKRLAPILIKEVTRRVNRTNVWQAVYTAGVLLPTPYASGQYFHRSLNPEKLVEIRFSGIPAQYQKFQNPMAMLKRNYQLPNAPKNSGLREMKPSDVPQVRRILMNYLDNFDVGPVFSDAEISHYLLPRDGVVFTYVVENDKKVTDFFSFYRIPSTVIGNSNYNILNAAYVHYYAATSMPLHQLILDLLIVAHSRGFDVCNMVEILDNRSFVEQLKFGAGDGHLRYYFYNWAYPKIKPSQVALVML

[4] = 72 h, read-out: EC50 extracellular L. donovani amastigotes
[5] = NMT inhibitors, 72 h in infected macrophages, n.p. = not possible
[6] = NMT inhibitors, 72 h at 26°C, read-out: EC50 extracellular L. donovani amastigotes
[7] = 72 h, 3-day treatment, splenic amastigotes from Rag2−/− mice, incubation at 26°C, read-out: EC50 ± SD extracellular L. donovani amastigotes
[8] = 72 h, 3-day treatment of infected bone marrow derived macrophages, mean of biological repeats, read-out: EC50 ± SD intracellular L. donovani amastigotes
[9] = Figure 3, representative dose response curve, 72 h incubation, read-out: EC50 intracellular L. donovani amastigotes, representative plot

Compound: Cc1nn(C)c(C)c1NS(=O)(=O)c1c(Cl)cc(-c2ccnc(N3CCNCC3)c2)cc1Cl [DDD85646]
- EC50 [1, 4]: 8 µM
- LD50 bone marrow derived macrophages ([2]; 72 h): >45 µM
- Effect on intracellular amastigotes at the highest concentration tested [3]: complete killing of the parasites; also recorded: all amastigotes cleared from the macrophages
- EC50 intracellular L. donovani amastigotes [3, 5]: n.p.

Compound: N[C@@H](CC(=O)N1C[C@H](CO)[C@@H](c2ccc(Cl)cc2)C1)Cc1ccc(Cl)cc1 [IMP-0000195]
- IC50 (L. donovani NMT; read-out: IC50 L. donovani NMT): 0.0765 µM
- EC50 [1, 6]: 12 µM
- LD50 bone marrow derived macrophages ([2]; female, BALB/c, mouse, 72 h): 12 µM
- Host cell toxicity (in words) ([2]; macrophages): equally toxic to macrophages; also recorded: host cell toxicity and no selectivity

Compound: CCCCCCCCCCCCCCCCOP(=O)([O-])OCC[N+](C)(C)C [Miltefosine, miltefosine]
- EC50 [1, 7]: 7.85 ± 0.5 µM
- EC50 [3, 8]: 1.38 ± 0.06 µM
- EC50 [3, 9]: 1.45 µM

Compound: Cc1nn(C)c(C)c1N(C(F)F)[S+](=O)([O-])c1c(Cl)cc(-c2ccnc(N3CCNCC3)c2)cc1Cl [DDD100887]
- EC50 [1, 6]: 0.66 µM
- LD50 bone marrow derived macrophages ([2]; female, BALB/c, mouse, 72 h): 23 µM
- EC50 ([3]; NMT inhibitors, 72 h in infected macrophages, n.p. = not possible, read-out: EC50 intracellular L. donovani amastigotes): 0.19 µM

Compound: CN1CCC(N(C)c2nc(N(C)CCC#N)c3sccc3n2)CC1 [IMP-0000083]
- IC50 (L. donovani NMT): 0.281 µM
- Fold less potent in inhibition of LdNMT than IMP-0000195 (L. donovani NMT; relative to IMP-0000195): ~4 fold
- EC50 [1, 6]: 24 µM
- Cellular (leishmanicidal) activity in words [1]: moderate cellular activity
- Host cell toxicity (in words) [2]: no toxicity to host cells
- LD50 bone marrow derived macrophages ([2]; 72 h): >45 µM
- Concentration up to which no host cell cytotoxicity was seen ([2]; female, BALB/c, mouse, 72 h): at least 45 µM
- Activity in the intracellular assay (in words) [3]: no activity

Compound: Cc1nn(C)c(C)c1NS(=O)(=O)c1c(Cl)cc(-c2ccnc(N3CCN(C)CC3)c2)cc1Cl [DDD86211]
- EC50 [1, 6]: 0.18 µM
- LD50 bone marrow derived macrophages ([2]; female, BALB/c, mouse, 72 h): >45 µM
- Effect on intracellular amastigotes at the highest concentration tested [3]: complete killing of the parasites; also recorded: all amastigotes cleared from the macrophages
- EC50 intracellular L. donovani amastigotes [3, 5]: n.p.

Compound: O=C(Cc1ccc(F)cc1)Nc1ccc2[nH]cc(C3CCNCC3)c2c1 [IMP-0000556]
- EC50 [1, 4]: > 30 µM
- Cellular (leishmanicidal) activity in words [1]: did not result in any leishmanicidal activity
- LD50 bone marrow derived macrophages ([2]; female, BALB/c, mouse, 72 h): >45 µM

Compound: c1cncc(CCNCc2cccc(-c3cccc(CN4CCc5ncsc5C4)c3)c2)c1 [IMP-0000197]
- EC50 [1, 6]: 16 µM
- Cellular (leishmanicidal) activity in words [1]: moderate cellular activity
- Concentration up to which no host cell cytotoxicity was seen [2]: at least 45 µM
- LD50 bone marrow derived macrophages ([2]; female, BALB/c, mouse, 72 h): 50 µM
- Activity in the intracellular assay (in words) [3]: no activity

Compound: C[C@@H]1[C@H](O)[C@@H](C)/C=C/C=C/C=C/C=C/C=C/C=C/C=C/[C@H](O[C@@H]2O[C@H](C)[C@@H](O)[C@H](N)[C@@H]2O)C[C@@H]2O[C@](O)(C[C@@H](O)C[C@@H](O)[C@H](O)CC[C@@H](O)C[C@@H](O)CC(=O)O[C@H]1C)C[C@H](O)[C@H]2C(=O)O [Amphotericin B, amphotericin B]
- EC50 [1, 7]: 0.05 ± 0.011 µM
- EC50 [3, 8]: 0.03 ± 0.009 µM
- EC50 [3, 9]: 0.029 µM
